The values below come from patent publication US10286022B2, “Medicinal composition of extract of seed of emblica officinalis and method of preparing the same” (priority 2013, dated 2019).

The test system of assay [1] is streptozotocin induced diabetic rats. As to the kind of experiment: Antidiabetic activity in streptozotocin induced diabetic rats (Example 22). The format is in vivo, rat. The procedure:
The amla seed extract as prepared in example 1 was evaluated for antidiabetic activity in experimental rats. Male/Female albino wistar rats were maintained as per standard guidelines: housed in polypropylene cages, under 12 hour artificial light and dark cycles at a temperature of 24±2° C., given a standard pellet diet and water ad libitum. The animals were acclimatized to the animal house conditions for a week before beginning the experiment. Diabetes was induced by injecting streptozotocin 35 mg/kg dissolved in 0.1M citrate buffer of pH 4.5, intra-peritoneally. […] Animals with FBG above 200 mg/dl were considered diabetic. The diabetic animals were randomly divided into three groups of six animals each. […] The plasma CRP level was measured initially and then at Day 28 of the study.

Assay [2] has as its target T1, HMG-CoA Reductase (HMGR) (Homo sapiens, UniProt P04035).
T1 sequence (P04035 426-888 limits assumed): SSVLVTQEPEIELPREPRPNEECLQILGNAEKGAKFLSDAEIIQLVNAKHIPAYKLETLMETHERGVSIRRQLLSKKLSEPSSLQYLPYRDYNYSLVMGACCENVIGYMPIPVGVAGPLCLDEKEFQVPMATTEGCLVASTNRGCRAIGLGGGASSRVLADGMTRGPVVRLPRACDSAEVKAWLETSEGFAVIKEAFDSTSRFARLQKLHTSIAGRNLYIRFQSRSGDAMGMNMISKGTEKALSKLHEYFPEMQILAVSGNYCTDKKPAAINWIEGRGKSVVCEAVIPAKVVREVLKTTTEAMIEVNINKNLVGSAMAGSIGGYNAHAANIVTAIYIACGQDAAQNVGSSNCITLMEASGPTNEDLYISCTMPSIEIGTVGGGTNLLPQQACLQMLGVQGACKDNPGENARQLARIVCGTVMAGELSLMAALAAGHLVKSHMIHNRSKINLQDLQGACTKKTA
As to the kind of experiment: HMG-CoA reductase inhibition assay (Example 30). The conditions noted are these: read-out: % Inhibition over control. The format is biochemical. On the procedure: Amla seed extract prepared as per example 1 and water extract of dried Amla seed prepared as per example 8 was weighed separately and each extract was dissolved in dimethyl sulfoxide (DMSO) to prepare a stock of 400 mg/ml stock solution of each. From this stock, different dose levels were prepared in DMSO for further experimental use. […] The optical density (OD) values were recorded using spectrophotometer at regular time intervals. […] Based on the specific activity values from all the test doses, EC50 (Effective Concentration 50) were determined by plotting a curve between Specific activity Vs. Test concentration. EC50 values (μg/ml) and IC50 (μM) were determined by interpolation method by using Graph pad prism, version 5.01.

As for `COc1ccc(Cl)cc1C(=O)NCCc1ccc(S(=O)(=O)NC(=O)NC2CCCCC2)cc1` [Glibenclamide], in assay [1] (0.5 mg/kg for 28 days), the “Fasting Blood Glucose level Day 7” value was found to be 211 mg/dL, the “Fasting Blood Glucose level Day 14” value came to 179 mg/dL, the “Fasting Blood Glucose level Day 21” value was found to be 136 mg/dL and the “Fasting Blood Glucose level Day 28” value worked out at 109 mg/dL. Besides, the “effect on blood glucose level” value in assay [1] (0.5 mg/kg for 28 days) is reported as “decreased the blood glucose level to nearly normal”. Also, in assay [1] (0.5 mg/kg for 28 days group), the “Fasting Blood Glucose level Day 1 (Initial)” value stood at 406 mg/dL. The “effect on CRP level” value in assay [1] (0.5 mg/kg for 28 days, compared to initial CRP value) is given as “failed to decrease the CRP level significantly”. The “CRP level Day 28 (Final)” value in assay [1] (plasma, 0.5 mg/kg for 28 days) came out at 9.6 mg/L. For the same compound, in assay [1] (plasma, 0.5 mg/kg for 28 days group), the “CRP level Day 1 (Initial)” value is listed as 10.8 mg/L.
Turning to `CC[C@H](C)C(=O)O[C@H]1C[C@@H](C)C=C2C=C[C@H](C)[C@H](CC[C@@H]3C[C@@H](O)CC(=O)O3)[C@H]21` [LOVASTATIN, lovastatin], in assay [2] (test concentration 2.5 μM), the inhibition at 2.5 µM turned out to be 37%. Also, the inhibition at 5 µM in assay [2] (test concentration 5 μM) was 37.6%. For the same compound, the inhibition at 10 µM in assay [2] (test concentration 10 μM) stood at 37.7%. Further, the inhibition at 20 µM in assay [2] (test concentration 20 μM) was found to be 41.5%. The inhibition at 40 µM in assay [2] (test concentration 40 μM) stood at 55.6%. Besides, the inhibition at 60 µM in assay [2] (test concentration 60 μM) was determined as 76.5%. Besides, in assay [2] (test concentration 80 μM), the inhibition at 80 µM is 86.6%. Further, the inhibition at 100 µM in assay [2] (test concentration 100 μM) stood at 98.5%.

Broadly, the inhibition is the drop in the measured response relative to a control, in per cent.
